From US20110039762A1, “TARGETED ANTIMICROBIAL MOIETIES” (C3 JIAN, INC., priority 2009, published 2011)
Values after ≈ are worked out from the molar mass of the structure shown. “Also recorded” adds a separate entry of the source. Like-named read-outs stand apart in the source and are kept apart here. Bridge positions count the residues as written; N and C are the ends. Square brackets hold non-standard residues; d marks the D form. Ends that are not written are not given here. Peptide text beside a SMILES is read from it. I, II: the chains in the order shown. Aoc = NCCCCCCCC(=O)O

Experiments:
E. coli [1] = assay type: cell-based, Escherichia coli
Protocol: (§1) Typically, the in vitro antimicrobial activity of antimicrobial agents is tested using standard NCCLS bacterial inhibition assays, or MIC tests (see, National Committee on Clinical Laboratory Standards “Performance Standards for Antimicrobial Susceptibility Testing,” NCCLS Document M100-S5 Vol. 14, No. 16, December 1994; “Methods for dilution antimicrobial susceptibility test for bacteria that grow aerobically-Third Edition,” Approved Standard M7-A3, National Committee for Clinical Standards, Villanova, Pa.).
(§2) Briefly, ˜1×10^5 cfu/mL bacteria were diluted in TH (S. mutans), or Mueller-Hinton (MH) broth (all other organisms) and distributed to 96-well plates. Serially-diluted (2-fold) peptides were then added and the plates incubated at 37° C. for 18-24 h. […] All experiments were conducted 10 times.

S. epidermidis [2] = assay type: cell-based, Staphylococcus epidermidis
How it was run: (§3)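 Ten repeat experiments used NCCLS dilution susceptibility testing: MH broth, ˜1×10^5 cfu/mL starting density, 2-fold peptide titration, 18-24 h incubation at 37° C.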

[3] = tested on: Mixed planktonic populations of P. aeruginosa, E. coli, S. epidermidis, and S. mutans; assay: Microbial population shift assay; assay type: cell-based; conditions: 10 μM peptide, 24 h
Protocol: Peptide (10 μM) or mock-treatment (1× PBS) was then added and samples were incubated at 37° C. for 24 h under anaerobic conditions (80% N2, 15% CO2, 5% H2). […] Plates were then incubated 37° C. under aerobic conditions (TH plates were incubated anaerobically) and colonies counted after 24 h to determine survivors. […] Gram stains and direct microscopic observation (from select isolated colonies) were undertaken to confirm species identity (data not shown). The detection limit of the assay was 200 cfu/mL.

S. mutans [4] = assay type: cell-based, Streptococcus mutans
[5] = tested on: Klebsiella pneumoniae KAY 2026; assay type: cell-based
Protocol: (§4) Aerobic Gram-negative organisms were grown in Lauri-Bertaini (LB) broth and Gram-positive bacteria in Brain-heart infusion (BHI) broth. Streptococcus mutans JM11 (spectinomycin resistant, UA140 background) was grown in Todd-Hewitt (TH) broth under anaerobic conditions (80% N2, 15% CO2, 5% H2) at 37° C. Merritt et al. (2005) J Microbiol Meth., 61: 161-170. All bacteria were grown overnight to an OD600 of 0.8-1.0 prior to appropriate dilution and antimicrobial testing.
as §2

[6] = tested on: Staphylococcus aureus Newmann; assay type: cell-based
Protocol: as §4, §2

S. mutans [7] = assay: Post-antibiotic effect assay (growth retardation after 10 min exposure); assay type: cell-based, Streptococcus mutans; conditions: S. mutans monoculture, peptide 10 min, then fresh medium
Protocol: The activity and selectivity of MH-STAMPs after a 10 min incubation was determined by growth retardation experiments against targeted and untargeted bacteria in monocultures, as described previously (Id.). Cells from overnight cultures were diluted to ˜5×10^6 cfu/mL in MH (or TH with 1% sucrose for S. mutans), normalized by OD600 0.05-0.1 and seeded to 96-well plates. Cultures were then grown under the appropriate conditions for 2 h (3 h for S. mutans) prior to the addition of peptides for 10 min. Plates were then centrifuged at 3000×g for 5 min, the supernatants discarded, fresh medium returned (MH or TH without sucrose for S. mutans), and incubation resumed. Bacterial growth after treatment was then monitored over time by OD600.

P. aeruginosa [8] = assay type: cell-based, Pseudomonas aeruginosa
Protocol: as §1, §2

T. rubrum = assay: MIC (broth microdilution); assay type: cell-based, Trichophyton rubrum
Protocol: as §1, §2

[9] = tested on: microorganisms (e.g., bacteria, yeasts, fungi); assay: Targeting peptide binding to target microorganisms (Table 3); conditions: microorganism(s) the targeting peptide binds; binding in aqueous buffers depending on peptide solubility, preferably 1x PBS
C. albicans [10] = assay: MIC (broth microdilution); assay type: cell-based, Candida albicans
Protocol: as §1, §2

S. epidermidis [11] = assay: Kill or inhibit growth/proliferation; morphology, biofilm and growth disruption (Tables 5, 6); assay type: cell-based, Staphylococcus epidermidis; design: key: A: Peptide aggregates; B: Less hyphal formation; Clumps; Diffuse clumps and small polyps; F: Diffuse growth; H: Thin; I: Growth inhibition; Microcolony formation; Rippled; Small polyps; Thick; W: Halo formation on top, microlonies on bottom
C. albicans [12] = assay: as above; assay type: cell-based, Candida albicans; design: key: A: Peptide aggregates; B: Less hyphal formation; Clumps; Diffuse clumps and small polyps; F: Diffuse growth; H: Thin; I: Growth inhibition; Microcolony formation; Rippled; Small polyps; Thick; W: Halo formation on top, microlonies on bottom
microorganisms = assay: Peptides having multiple activities (targeting/binding, antimicrobial, growth or phenotype altering)
From the text: In certain embodiments, peptides described herein can have multiple activities. Thus for example, a peptide can have both binding/targeting activity and antimicrobial activity. Such peptides can be used, e.g., in a chimeric construct, for any or all of these properties. Thus, for example, a peptide designated “B” in Table 8 can be used as a targeting peptide. If it is also designated G or M it can also be used for antimicrobial activity.

M. luteus = assay: Kill or inhibit growth/proliferation; morphology, biofilm and growth disruption (Tables 5, 6); assay type: cell-based, Micrococcus luteus; design: key: A: Peptide aggregates; B: Less hyphal formation; Clumps; Diffuse clumps and small polyps; F: Diffuse growth; H: Thin; I: Growth inhibition; Microcolony formation; Rippled; Small polyps; Thick; W: Halo formation on top, microlonies on bottom
C. difficile = assay: MIC (broth microdilution); assay type: cell-based, Clostridium difficile
Protocol: as §1, §2

S. pneumoniae = assay: Kill or inhibit growth/proliferation; morphology, biofilm and growth disruption (Tables 5, 6); assay type: cell-based, Streptococcus pneumoniae; design: key: A: Peptide aggregates; B: Less hyphal formation; Clumps; Diffuse clumps and small polyps; F: Diffuse growth; H: Thin; I: Growth inhibition; Microcolony formation; Rippled; Small polyps; Thick; W: Halo formation on top, microlonies on bottom
A. baumannii = assay: MIC (broth microdilution); assay type: cell-based, Acinetobacter baumannii
Protocol: as §1, §2

B. subtilis [13] = assay: MIC (broth microdilution); assay type: cell-based, Bacillus subtilis
How it was run: as §3

B. subtilis [14] = assay: Kill or inhibit growth/proliferation; morphology, biofilm and growth disruption (Tables 5, 6); assay type: cell-based, Bacillus subtilis; design: key: A: Peptide aggregates; B: Less hyphal formation; Clumps; Diffuse clumps and small polyps; F: Diffuse growth; H: Thin; I: Growth inhibition; Microcolony formation; Rippled; Small polyps; Thick; W: Halo formation on top, microlonies on bottom
C. jeikeium [15] = assay: as above; assay type: cell-based, Corynebacterium jeikeium; design: key: A: Peptide aggregates; B: Less hyphal formation; Clumps; Diffuse clumps and small polyps; F: Diffuse growth; H: Thin; I: Growth inhibition; Microcolony formation; Rippled; Small polyps; Thick; W: Halo formation on top, microlonies on bottom
C. jejuni = assay: as above; assay type: cell-based, Campylobacter jejuni; design: key: A: Peptide aggregates; B: Less hyphal formation; Clumps; Diffuse clumps and small polyps; F: Diffuse growth; H: Thin; I: Growth inhibition; Microcolony formation; Rippled; Small polyps; Thick; W: Halo formation on top, microlonies on bottom
MRSA [16] = assay: as above; assay type: cell-based, Methicillin-resistant Staphylococcus aureus; design: key: A: Peptide aggregates; B: Less hyphal formation; Clumps; Diffuse clumps and small polyps; F: Diffuse growth; H: Thin; I: Growth inhibition; Microcolony formation; Rippled; Small polyps; Thick; W: Halo formation on top, microlonies on bottom
C. jeikeium [17] = assay: MIC (broth microdilution); assay type: cell-based, Corynebacterium jeikeium
Protocol: as §1, §2

MRSA [18] = assay: MIC (broth microdilution); assay type: cell-based, Methicillin-resistant Staphylococcus aureus
How it was run: as §3

P. aeruginosa [19] = assay: Kill or inhibit growth/proliferation; morphology, biofilm and growth disruption (Tables 5, 6); assay type: cell-based, Pseudomonas aeruginosa; design: key: A: Peptide aggregates; B: Less hyphal formation; Clumps; Diffuse clumps and small polyps; F: Diffuse growth; H: Thin; I: Growth inhibition; Microcolony formation; Rippled; Small polyps; Thick; W: Halo formation on top, microlonies on bottom
A. niger = assay: MIC (broth microdilution); assay type: cell-based, Aspergillus niger
Protocol: as §1, §2

E. coli [20] = assay: Kill or inhibit growth/proliferation; morphology, biofilm and growth disruption (Tables 5, 6); assay type: cell-based, Escherichia coli; design: key: A: Peptide aggregates; B: Less hyphal formation; Clumps; Diffuse clumps and small polyps; F: Diffuse growth; H: Thin; I: Growth inhibition; Microcolony formation; Rippled; Small polyps; Thick; W: Halo formation on top, microlonies on bottom

Molecule	MIC (S. epidermidis [2])	MIC (P. aeruginosa [8])	MIC (T. rubrum)	Target(s) [9]	MIC (C. albicans [10])	MIC (S. epidermidis [2]; S. epidermidis)	Organism, effect (S. epidermidis [11])	Organism, effect (C. albicans [12])	Activities (microorganisms)	Organism, effect (M. luteus)	MIC (C. difficile)	Organism, effect (S. pneumoniae)	MIC (A. baumannii)	MIC (B. subtilis [13])	Organism, effect (B. subtilis [14])	MIC (C. jeikeium [17])	Organism, effect (P. aeruginosa [19])	MIC (A. niger)	other results
CC[C@H](C)[C@H](NC(=O)[C@H](Cc1ccccc1)NC(=O)CCCCCCCNC(=O)[C@H](CCCCNC(=O)CNC(=O)CNC(=O)CNC(=O)[C@H](Cc1c[nH]cn1)NC(=O)[C@H](CCCCN)NC(=O)[C@H](CCCNC(=N)N)NC(=O)[C@H](Cc1c[nH]cn1)NC(=O)[C@H](CCCCN)NC(=O)[C@H](CCCNC(=N)N)NC(=O)[C@H](Cc1c[nH]cn1)NC(=O)[C@H](CCCCN)NC(=O)[C@H](CCCNC(=N)N)NC(=O)[C@H](Cc1c[nH]cn1)NC(=O)[C@H](CCCCN)NC(=O)[C@@H](N)CCCCN)NC(=O)CNC(=O)CNC(=O)CNC(=O)[C@H](C)NC(=O)[C@H](CCC(=O)O)NC(=O)[C@H](CC(N)=O)NC(=O)[C@H](C)NC(=O)[C@H](C)NC(=O)[C@H](CC(=O)O)NC(C)=O)C(=O)N[C@@H](CCCNC(=N)N)C(=O)N[C@@H](CCCCN)C(=O)N[C@@H](Cc1ccccc1)C(=O)N[C@@H](CC(C)C)C(=O)N[C@@H](CCCCN)C(=O)N[C@@H](CCCCN)C(=O)N[C@@H](Cc1c[nH]c2ccccc12)C(=O)N[C@@H](CC(C)C)C(=O)N[C@@H](CC(C)C)C(N)=O [BL(KH)-20] (I: Ac-DAANEAGGGK[Aoc]FIRKFLKKWLL-NH2 / II: H-KKHRKHRKHRKHGGG; amide I:10-II:C)	6.25 µM (≈ 27.3 µg/mL)	27.5 ± 7.90 µM (≈ 120 µg/mL)																	MIC (E. coli [1]): 6.25 µM (≈ 27.3 µg/mL); recoverable (surviving) cfu/mL ([3]; E. coli in mixed culture): unchanged numbers; recoverable (surviving) cfu/mL ([3]; P. aeruginosa in mixed culture): not observed; recoverable (surviving) cfu/mL ([3]; S. epidermidis in mixed culture): unchanged numbers; recoverable (surviving) cfu/mL ([3]; S. mutans in mixed culture): higher than input cfu/mL; MIC (S. mutans [4]): 6.25 µM (≈ 27.3 µg/mL); MIC [5]: 6.25 µM (≈ 27.3 µg/mL); MIC [6]: 6.25 µM (≈ 27.3 µg/mL); bacterial growth (OD600) after treatment (S. mutans [7]): not altered
LSLATFAKIFMTRSNWSLKRFNRL [PF-278]			T. rubrum, 50 μM	M. luteus; also recorded: A. baumannii	C. albicans, 50 μM	S. epidermidis, 50 μM	S. epidermidis (I)	C. albicans (B)	G B M	M. luteus (R)									
KNKKQTDILEKVKEILDKKKKTKSVGQKLY [PF-538]									G M		C. difficile, 25 μM	S. pneumoniae (H)	A. baumannii, 25 μM						
MKRRRCNWCGKLFYLEEKSKEAYCCKECRKKAKKVKK [PF-307]			T. rubrum, 50 μM	S. epidermidis; also recorded: B. subtilis; also recorded: B. fragilis; also recorded: C. difficile	C. albicans, 50 μM		S. epidermidis (T)	C. albicans (B)	G B M					B. subtilis, 50 μM	B. subtilis (H)				
GSVIKKRRKRMAKKKHRKLLKKTRIQRRRAGK [PF-527]	S. epidermidis, 25 μM	P. aeruginosa, 50 μM	T. rubrum, 25 μM				S. epidermidis (M)	C. albicans (B)	G B M	M. luteus (S)		S. pneumoniae (H)		B. subtilis, 12.5 μM	B. subtilis (I)	C. jeikeium, 6.25 μM	P. aeruginosa (I)	A. niger, 50 μM	Organism, effect (C. jeikeium [15]): C. jeikeium (I); Organism, effect (C. jejuni): C. jejuni (M); Organism, effect (MRSA [16]): MRSA (I); MIC (MRSA [18]): MRSA , 50 μM
YIQFHLNQQPRPKVKKIKIFL-NH2 [PF-531]			T. rubrum, 50 μM			S. epidermidis, 50 μM	S. epidermidis (I)		G M		C. difficile, 12.5 μM	S. pneumoniae (C)	A. baumannii, 25 μM	B. subtilis, 25 μM		C. jeikeium, 6.25 μM	P. aeruginosa (I)	A. niger, 25 μM	Organism, effect (E. coli [20]): E. coli (M); MIC (S. mutans [4]; S. mutans): S. mutans, 12.5 μM; MIC (P. aeruginosa [8]; P. aeruginosa): P. aeruginosa, 50 μM
